Assay results published in PubChem BioAssay (NCI).
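In this assay, cells in 96-well plates receive the compound at five concentrations for 48 hours. Endpoints are linearly interpolated between the surrounding concentrations. GI50 is the concentration that inhibits growth by half. Definition used: TGI = concentration required for complete inhibition of growth.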

How the values were obtained:
Assay in all cases: NCI anticancer screen, dose series, 48 h
[1] = tested on: HL-60(TB) leukemia
[2] = tested on: SW-620 colon
[3] = tested on: EKVX NSCLC
[4] = tested on: OVCAR-8 ovarian
[5] = tested on: K-562 leukemia
[6] = tested on: OVCAR-5 ovarian
[7] = tested on: SNB-75 CNS
[8] = tested on: MCF7 breast
[9] = tested on: M14 melanoma
[10] = tested on: UO-31 renal

SMILES | GI50 [1] | TGI [1] | GI50 [2] | TGI [2] | GI50 [3] | TGI [3] | GI50 [4] | TGI [4] | GI50 [5] | TGI [5] | GI50 [6] | TGI [6] | GI50 [7] | TGI [7] | GI50 [8] | TGI [8] | GI50 [9] | TGI [9] | GI50 [10] | TGI [10]
O=C1/C(=C/c2cccc([N+](=O)[O-])c2)COc2ccc(O)c(O)c21 | 2.29 µM | 7.14 µM | 1.14 µM | 3.08 µM | 1.9 µM | 4.1 µM | 2.35 µM | 13.3 µM | 0.506 µM | 7.22 µM | 1.8 µM | 3.44 µM | 1.28 µM | 5.72 µM | 0.665 µM | 2.96 µM | 1.81 µM | 4.27 µM | 1.07 µM | 2.29 µM
O=C(Nc1ccc(Cl)c([N+](=O)[O-])c1)Nc1nc2ccccc2s1 | 4.48 µM | 24 µM | 3.38 µM | 14.5 µM | 2.59 µM | 10.9 µM | 3.33 µM | 17.7 µM | 4.15 µM | > 100 µM | 4.49 µM | 19.3 µM | 3.97 µM | 15.4 µM | 3.02 µM | 15.5 µM | 11.3 µM | 33 µM | 2.91 µM | 
CN1CCN(Cc2ccc(-c3cc4ncnc(Nc5ccc(OCc6cccc(F)c6)c(Cl)c5)c4s3)o2)CC1 | 4.62 µM | 9.34 µM | 4.66 µM | 8.64 µM | 2.95 µM | 8.78 µM | 4.53 µM | 9.62 µM | 2.08 µM | 6.85 µM | 3.91 µM | 7.8 µM | 4.29 µM | 9.11 µM | 3.86 µM | 7.81 µM | 4.63 µM | 8.81 µM | 3.3 µM | 7.37 µM
Cn1ccnc1C(=O)/C=C/c1ccc(CC(=O)Nc2ccc(Cl)cc2)cc1 | 4.81 µM | > 25 µM | 1.25 µM | > 25 µM | 15.6 µM | > 25 µM | 3.49 µM | > 25 µM |  |  | 9.97 µM | > 25 µM | 1.9 µM | > 25 µM | 0.891 µM | > 25 µM |  |  | 2.27 µM | > 25 µM
COc1cc2oc(=O)cc(C)c2cc1[N+](=O)[O-] |  | 44 µM |  | > 64.1 µM |  | > 100 µM |  | 40.7 µM |  | > 100 µM |  | > 79 µM |  | > 100 µM |  | > 100 µM |  | 37.9 µM |  | > 87.6 µM
O=C(/C=C/c1ccco1)c1ccc(Nc2nc(Nc3ccc(F)cc3)nc(Nc3ccc(Cl)cc3)n2)cc1 | > 42.3 µM | 98.8 µM | 24.5 µM | > 63.3 µM | > 32.1 µM | > 60.2 µM | 18.3 µM | 57.3 µM | 24.3 µM | > 64.8 µM | > 100 µM | > 100 µM | 30.5 µM | > 80.9 µM | 1.84 µM | 34.1 µM | 13.5 µM | 56.9 µM | > 60.8 µM | > 100 µM
c1ccc(N=C2c3ccccc3CN2c2ccccc2)cc1 |  | > 100 µM |  | > 100 µM |  | > 100 µM |  | > 100 µM |  | > 100 µM |  |  |  | > 100 µM |  | > 100 µM |  | > 100 µM |  | > 100 µM
O=C1OC(c2ccco2)=N/C1=C\c1ccc(Cl)c(Cl)c1 |  | > 100 µM |  | > 100 µM |  | > 100 µM |  | > 100 µM |  | > 100 µM |  | > 100 µM |  | > 100 µM |  | > 100 µM |  | > 100 µM |  | 
C=C1C(=O)O[C@@H]2C[C@@H]1CC[C@]1(C)O[C@H]1CC[C@@]1(C)O[C@@H]1CC[C@@]2(C)O | 15.2 µM | 46.5 µM | 29.2 µM | > 100 µM | 59.8 µM | > 100 µM | 30.7 µM | > 100 µM | 19.5 µM | > 100 µM | 29.2 µM | > 100 µM |  |  | 99.8 µM | > 100 µM | 34.2 µM | > 100 µM | 13.7 µM | 45.1 µM
CN(C)/[N+]([O-])=N/Oc1cc(Nc2cccc(C(=O)O)c2)c([N+](=O)[O-])cc1[N+](=O)[O-] | 52.2 µM | > 100 µM | > 100 µM | > 100 µM | > 100 µM | > 100 µM | > 100 µM | > 100 µM | 61.6 µM | > 100 µM | > 100 µM | > 100 µM | > 100 µM | > 100 µM | 36.8 µM | > 100 µM |  |  | > 100 µM | > 100 µM
Cc1ccc(C)c(NC(=O)C(=O)C2C(=O)C3=C(CC2(C)C)Nc2ccccc2S3)c1 (stereo unspecified) |  | > 100 µM |  | > 100 µM |  | > 100 µM |  | > 100 µM |  |  |  | > 100 µM |  | > 100 µM |  | > 100 µM |  | > 100 µM |  | > 100 µM
Oc1c(CN2CCC(N3CCOCC3)CC2)cc(Cc2cc(CN3CCC(N4CCOCC4)CC3)c(O)c3ncccc23)c2cccnc12 | 0.789 µM | 3.71 µM | 0.689 µM | > 100 µM | 0.737 µM | > 100 µM | 1.57 µM | 21.9 µM |  |  | 2.14 µM | > 100 µM | 2.57 µM | 38.2 µM | 0.543 µM | > 100 µM | 0.61 µM | 17.1 µM | 0.366 µM | 4.48 µM
